Experiment: refractive index (other wavelength) (dimensionless); xn = mol fraction of the nth substance listed
Conditions: 85 kPa, Liquid, Wavelength=632.8 nm, minimum deviation angle

CCCCCCCC[n+]1ccn(C)c1.F[B-](F)(F)F [1-methyl-3-octylimidazolium tetrafluoroborate] + CCCCCCO
Conditions	refractive index
289.88 K, x1 = 0.004	1.4182
289.88 K, x1 = 0.354	1.4268
290.62 K, x1 = 0.007	1.418
290.62 K, x1 = 0.346	1.4264
291.35 K, x1 = 0.01	1.4178
291.35 K, x1 = 0.338	1.426
292.06 K, x1 = 0.009	1.4175
292.06 K, x1 = 0.325	1.4255
292.78 K, x1 = 0.011	1.4173
292.78 K, x1 = 0.317	1.4251
293.48 K, x1 = 0.014	1.4171
293.48 K, x1 = 0.31	1.4247
294.37 K, x1 = 1	1.4327
294.83 K, x1 = 0.018	1.4167
294.83 K, x1 = 0.289	1.4238
295.51 K, x1 = 0.02	1.4165
295.51 K, x1 = 0.282	1.4234
295.86 K, x1 = 1	1.4323
296.12 K, x1 = 0.021	1.4163
296.12 K, x1 = 0.269	1.4229
296.61 K, x1 = 0.024	1.4162
296.61 K, x1 = 0.263	1.4226
297.04 K, x1 = 0.026	1.4161
297.04 K, x1 = 0.252	1.4222
297.21 K, x1 = 1	1.4319
297.39 K, x1 = 0.027	1.416
297.39 K, x1 = 0.245	1.4219
297.66 K, x1 = 0.031	1.416
297.66 K, x1 = 0.24	1.4217
297.92 K, x1 = 0.034	1.416
297.92 K, x1 = 0.236	1.4215
298.17 K, x1 = 0.034	1.4159
298.17 K, x1 = 0.227	1.4212
298.38 K, x1 = 0.037	1.4159
298.38 K, x1 = 0.222	1.421
298.57 K, x1 = 0.042	1.416
298.57 K, x1 = 0.221	1.4209
298.73 K, x1 = 0.044	1.416
298.73 K, x1 = 0.219	1.4208
298.88 K, x1 = 0.046	1.416
298.88 K, x1 = 0.213	1.4206
298.93 K, x1 = 1	1.4313
299.01 K, x1 = 0.045	1.4159
299.01 K, x1 = 0.207	1.4204
299.12 K, x1 = 0.049	1.416
299.12 K, x1 = 0.208	1.4204
299.21 K, x1 = 0.05	1.416
299.21 K, x1 = 0.202	1.4202
299.37 K, x1 = 0.056	1.4161
299.37 K, x1 = 0.196	1.42
299.44 K, x1 = 0.057	1.4161
299.44 K, x1 = 0.193	1.4199
299.5 K, x1 = 0.061	1.4162
299.5 K, x1 = 0.194	1.4199
299.55 K, x1 = 0.061	1.4162
299.55 K, x1 = 0.191	1.4198
299.6 K, x1 = 0.062	1.4162
299.6 K, x1 = 0.188	1.4197
299.66 K, x1 = 0.063	1.4162
299.66 K, x1 = 0.184	1.4196
299.7 K, x1 = 0.067	1.4163
299.7 K, x1 = 0.181	1.4195
299.74 K, x1 = 0.067	1.4163
299.74 K, x1 = 0.178	1.4194
299.79 K, x1 = 0.071	1.4164
299.79 K, x1 = 0.175	1.4193
299.83 K, x1 = 0.075	1.4165
299.83 K, x1 = 0.175	1.4193
299.86 K, x1 = 0.075	1.4165
299.86 K, x1 = 0.172	1.4192
299.9 K, x1 = 0.079	1.4166
299.9 K, x1 = 0.169	1.4191
299.95 K, x1 = 0.083	1.4167
299.95 K, x1 = 0.165	1.419
299.97 K, x1 = 0.084	1.4167
299.97 K, x1 = 0.158	1.4188
299.99 K, x1 = 0.087	1.4168
299.99 K, x1 = 0.155	1.4187
300 K, x1 = 0.091	1.4169
300 K, x1 = 0.155	1.4187
300.02 K, x1 = 0.091	1.4169
300.02 K, x1 = 0.148	1.4185
300.03 K, x1 = 0.095	1.417
300.03 K, x1 = 0.148	1.4185
300.04 K, x1 = 0.098	1.4171
300.04 K, x1 = 0.144	1.4184
300.05 K, x1 = 0.102	1.4172
300.05 K, x1 = 0.141	1.4183
300.06 K, x1 = 0.102	1.4172
300.06 K, x1 = 0.105	1.4173
300.06 K, x1 = 0.109	1.4174
300.06 K, x1 = 0.134	1.4181
300.06 K, x1 = 0.137	1.4182
300.06 K, x1 = 0.141	1.4183
300.67 K, x1 = 1	1.4309
301.31 K, x1 = 0.1	1.4166
302.86 K, x1 = 0.1	1.416
302.95 K, x1 = 1	1.4303
303.16 K, x1 = 0.2	1.4188
304.31 K, x1 = 0.2	1.4183
304.45 K, x1 = 0.1	1.4155
304.54 K, x1 = 0.4	1.4225
304.54 K, x1 = 0.497	1.4239
304.6 K, x1 = 1	1.4298
305 K, x1 = 0.3	1.4202
305.51 K, x1 = 0.2	1.4179
305.52 K, x1 = 0.6	1.4251
305.52 K, x1 = 0.699	1.4263
305.69 K, x1 = 0.497	1.4236
305.73 K, x1 = 0.4	1.4221
305.93 K, x1 = 0.3	1.4199
306.12 K, x1 = 0.1	1.4148
306.24 K, x1 = 1	1.4293
306.66 K, x1 = 0.2	1.4175
306.68 K, x1 = 0.699	1.426
307.04 K, x1 = 0.6	1.4247
307.07 K, x1 = 0.3	1.4196
307.1 K, x1 = 0.891	1.428
307.23 K, x1 = 0.4	1.4216
307.73 K, x1 = 0.497	1.4229
307.83 K, x1 = 0.1	1.4142
307.92 K, x1 = 0.2	1.417
308.25 K, x1 = 0.699	1.4255
308.37 K, x1 = 0.798	1.4267
308.59 K, x1 = 0.6	1.4242
308.7 K, x1 = 0.3	1.419
308.74 K, x1 = 0.4	1.4211
308.75 K, x1 = 0.891	1.4276
309.13 K, x1 = 0.497	1.4225
309.18 K, x1 = 0.1	1.4137
309.19 K, x1 = 0.2	1.4165
309.66 K, x1 = 0.798	1.4264
309.72 K, x1 = 0.699	1.4251
310.02 K, x1 = 0.6	1.4237
310.19 K, x1 = 0.891	1.4272
310.59 K, x1 = 0.3	1.4184
310.6 K, x1 = 0.4	1.4204
310.63 K, x1 = 0.798	1.4261
310.77 K, x1 = 0.497	1.422
311.29 K, x1 = 0.699	1.4246
311.31 K, x1 = 0.891	1.4268
311.64 K, x1 = 0.6	1.4233
312.14 K, x1 = 0.3	1.4179
312.14 K, x1 = 0.4	1.4199
312.15 K, x1 = 0.798	1.4257
312.81 K, x1 = 0.699	1.4242
312.9 K, x1 = 0.497	1.4214
312.9 K, x1 = 0.6	1.4229
313.38 K, x1 = 0.891	1.4263
313.81 K, x1 = 0.798	1.4253
315.28 K, x1 = 0.798	1.4248
315.28 K, x1 = 0.891	1.4258
